Test results as given in patent publication EP4813403A1, “USE OF GLP-1R/GIPR DOUBLE-TARGET AGONIST IN PREPARING ANIMAL DRUG” (Hangzhou Zhongmeihuadong Pharmaceutical Co., Ltd., priority 2023, dated 2025).

How the values were obtained:
[1] = target: human GLP-1R (Homo sapiens, UniProt P43220); assay: In vitro binding activity to human GLP-1 receptor ([125I]GLP-1 displacement, crude cell membranes); set-up: expressed in transfected cells; conditions: ratio of the Ki value of the endogenous ligand to the Ki value of the test compound; larger ratio = stronger binding
Experimental: (§1) 89 µL of membrane dissolved in binding buffer (50 mM Hepes, pH 7.4, 5 mM MgCl2 , 5 mM EDTA, 0.005% TWEEN, 0.005% HSA) was transferred to a 96-well test plate (5 µg/well). The compound was serially diluted in DMSO, and then, 1 µL of the diluted compound or 100% DMSO was added to the test plate containing the membrane solution. 10 µL of [^125I] […] The test plate was left at room temperature for 90 minutes. The membrane complexes were harvested into a GF/B plate pre-coated with 0.5% PEI by using a Cell Harvester, and washed for 3 times with 500 µL of pre-cooled elution buffer (50 mM Hepes, pH 7.4, 500 mM NaCl) at 4°C. After drying at 37°C for 2 hours, 50 µL of scintillation fluid was added to each well. The plate was read with a MicroBeta2 scintillation counter after sealing and settling for at least 1 hour so as to determine the membrane bound radioligand level.
The IC50 concentration was converted to Ki (Ki was the inhibition constant) using the Cheng-Prusoff equation.

[2] = target: T1, human GIP Receptor (Homo sapiens, UniProt P48546); assay: In vitro binding activity to human GIP receptor ([125I]GIP displacement, crude cell membranes); conditions: ratio of the Ki value of the endogenous ligand to the Ki value of the test compound; larger ratio = stronger binding
T1 construct: expressed in transfected cells
T1 sequence (P48546 22-466): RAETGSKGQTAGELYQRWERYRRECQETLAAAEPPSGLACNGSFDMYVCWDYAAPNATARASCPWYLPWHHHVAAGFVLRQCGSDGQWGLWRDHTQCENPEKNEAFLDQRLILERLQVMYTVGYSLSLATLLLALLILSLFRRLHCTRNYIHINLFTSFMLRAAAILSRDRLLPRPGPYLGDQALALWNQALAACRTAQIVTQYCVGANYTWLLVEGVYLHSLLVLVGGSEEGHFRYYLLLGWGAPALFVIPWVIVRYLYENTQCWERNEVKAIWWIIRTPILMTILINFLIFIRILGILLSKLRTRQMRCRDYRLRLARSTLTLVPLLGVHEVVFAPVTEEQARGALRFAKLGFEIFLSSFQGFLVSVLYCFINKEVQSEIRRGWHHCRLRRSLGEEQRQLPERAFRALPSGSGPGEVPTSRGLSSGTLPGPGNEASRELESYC
Experimental: as §1
hGIP and the compound of the present invention were dissolved in DMSO and stored at -80°C. 98 µL of membrane dissolved in binding buffer (50 mM HEPES pH 7.4, 5 mM MgCl2, 1 mM CaCl2, 0.1% BSA, 0.005% Tween-20) was transferred to a 96-well test plate (15 µg/well). The compound was serially diluted in DMSO, and then, 2 µL of the diluted compounds or 100% DMSO was added to the test plate containing the membrane solution. […] The test plate was left at room temperature for 90 minutes. The membrane complexes were harvested into a GF/B plate pre-coated with 0.5% PEI by using a Cell Harvester, and washed for 3 times with 500 µL of pre-cooled elution buffer (50 mM Tris-HCl pH 7.4, 125 mM NaCl) at 4°C. After drying at 37°C for 2 hours, 50 µL of scintillation fluid was added to each well. The plate was read with a MicroBeta2 scintillation counter after sealing and settling for at least 1 hour so as to determine the membrane bound radioligand level.
The IC50 concentration was converted to Ki (Ki was the inhibition constant) using the Cheng-Prusoff equation. Table 1. Receptor Binding Affinity, Ki Ratio

[3] = test system: db/db mice; assay: Pharmacodynamic effects in db/db mice, single subcutaneous administration (blood glucose); type: in vivo; conditions: single s.c. 10 nmol/kg, Group 2, longest time with p<0.05 vs. vehicle
Experimental: In this study, 8-9 week old male db/db mice were used. The db/db mice were placed in an individual ventilated cage (IVC) facility with a controlled temperature (20-26°C) and humidity (40-70%) and a controlled 12h:12 h light-dark cycle. The mice can receive food and water ad libitum. Blood was sampled at the tail tip, and the random base blood glucose was measured by a Roche blood glucose meter. The mice were randomly divided into groups according to the random initial fasting blood glucose and initial body weight (n=6/group), and each group had similar body weight and blood glucose.
After a single subcutaneous administration, the random base blood glucoses were recorded at the set time point (0 to 120 hours, the recording of the random base blood glucose was stopped until there was no difference between the random base blood glucose of the compound and that of the vehicle group), and the daily body weight and food intake were also recorded. The data results were statistically analyzed using GraphPad Prism8, and the statistical differences among the groups were analyzed following a T-Test. Significant differences were identified at p<0.05.
Hypoglycemic Duration: the longest time during which the random base blood glucose of the compound has a significant difference (p<0.05) vs. the vehicle group. Table 13. Hypoglycemic Duration of the Compounds

[4] = Pharmacokinetics following single administration in SD rats; conditions: male, Sprague-Dawley, rat, in vivo, sc
Experimental: The compound was administrated to male SD rats (230-268 g, n=3) at a dose of 50.0 nmol/kg (s.c.) or 25.0 nmol/kg (i.v.). […] 30.0 μL of thawed plasma sample was taken. 150 μL of acetonitrile solution (containing 5 ng·mL^-1 Verapamil , 50 ng·mL^-1 Glibenclamide, 200 ng·mL^-1 Tolbutamide and 200 ng·mL^-1 Diclofenac) were added to precipitate protein. The mixture was vortexed for 5 minutes, and centrifuged at 3700 rpm for 8 minutes. 70.0 μL of the supernatant was taken, into which 70.0 μL of 0.5% aqueous formic acid solution was added. The mixture was vortexed for 5 minutes. 15 μL of the mixture solution was sampled and injected into the LC-MS/MS to determine the drug concentration in plasma. 20.0 μL of thawed plasma sample was taken. 60 μL of acetonitrile solution (containing 5 ng·mL^-1 Verapamil, 50 ng·mL^-1 Glibenclamide, 200 ng·mL^-1 Tolbutamide and 200 ng·mL^-1 Diclofenac) were added to precipitate protein. […] The mixture was vortexed for 10 minutes. 10.0 μL of the mixture solution was sampled and injected into the LC-MS/MS to determine the drug concentration in plasma. 30.0 μL of thawed plasma sample was taken. 150 μL of acetonitrile solution (containing 5 ng·mL^-1 Verapamil, 50 ng·mL^-1 Glibenclamide, 200 ng·mL^-1 Tolbutamide and 200 ng·mL^-1 Diclofenac) were added to precipitate protein. The mixture was vortexed for 5 minutes, and centrifuged at 3700 rpm for 8 minutes. 70.0 μL of the supernatant was taken, into which 70.0 μL of 0.5% aqueous formic acid solution was added. The mixture was vortexed for 5 minutes. 10.0 μL of the mixture solution was sampled and injected into the LC-MS/MS to determine the drug concentration in plasma. […] Table 5 Pharmacokinetic Parameters after Subcutaneous Injection of Different Polypeptide Compounds to Rats

Chain of human GLP-1R (P43220 24-463): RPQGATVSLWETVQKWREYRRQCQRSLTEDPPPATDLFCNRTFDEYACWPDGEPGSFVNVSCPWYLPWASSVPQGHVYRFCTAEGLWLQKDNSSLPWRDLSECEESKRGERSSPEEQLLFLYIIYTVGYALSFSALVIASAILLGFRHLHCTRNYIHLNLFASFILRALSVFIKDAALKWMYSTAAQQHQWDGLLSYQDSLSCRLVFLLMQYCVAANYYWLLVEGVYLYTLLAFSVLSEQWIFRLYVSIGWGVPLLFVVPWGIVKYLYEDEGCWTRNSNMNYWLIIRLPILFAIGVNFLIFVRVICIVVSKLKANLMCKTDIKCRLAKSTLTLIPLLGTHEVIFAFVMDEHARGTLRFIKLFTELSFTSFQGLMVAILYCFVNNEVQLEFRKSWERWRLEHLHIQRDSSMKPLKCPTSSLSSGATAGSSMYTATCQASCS

SMILES	GLP-1R Ki ratio [1]	GIPR Ki ratio [2]	Hypoglycemic Duration [3] [h]	Tmax [4] [h]	half-life [4] [h]
CC[C@H](C)[C@H](NC(=O)C(C)(C)NC(=O)[C@H](Cc1ccc(O)cc1)NC(=O)[C@H](CC(=O)O)NC(=O)[C@H](CO)NC(=O)[C@@H](NC(=O)C(C)(Cc1ccccc1)NC(=O)[C@@H](NC(=O)CNC(=O)[C@H](CCC(=O)O)NC(=O)C(C)(C)NC(=O)[C@@H](N)Cc1ccc(O)cc1)[C@@H](C)O)[C@@H](C)O)C(=O)NC(C)(C)C(=O)N[C@@H](CC(C)C)C(=O)N[C@@H](CC(=O)O)C(=O)N[C@@H](CCCCN)C(=O)N[C@@H](CCC(N)=O)C(=O)N[C@@H](C)C(=O)N[C@@H](CCC(N)=O)C(=O)N[C@@H](C)C(=O)N[C@@H](CCC(=O)O)C(=O)N[C@@H](Cc1ccccc1)C(=O)N[C@H](C(=O)N[C@@H](CCCCN)C(=O)N[C@@H](Cc1c[nH]c2ccccc12)C(=O)N[C@@H](CC(C)C)C(=O)N[C@@H](CC(C)C)C(=O)N[C@@H](CCCCNC(=O)COCCOCCNC(=O)COCCOCCNC(=O)CC[C@H](NC(=O)CC[C@H](NC(=O)CC[C@H](NC(=O)CCCCCCCCCCCCCCCCC(=O)O)C(=O)O)C(=O)O)C(=O)O)C(=O)NCC(=O)NCC(=O)N1CCC[C@H]1C(=O)N[C@@H](CO)C(=O)N[C@@H](CO)C(=O)NCC(=O)N[C@@H](C)C(=O)N1CCC[C@H]1C(=O)N1CCC[C@H]1C(=O)N1CCC[C@H]1C(=O)N[C@@H](CO)C(=O)N[C@@H](CCCCN)C(N)=O)C(C)C (stereo partly shown) [Compound P018]	1.45	0.05	48	24	18.3 ± 6.77
CC[C@H](C)[C@H](NC(=O)C(C)(C)NC(=O)[C@H](Cc1ccc(O)cc1)NC(=O)[C@H](CC(=O)O)NC(=O)[C@H](CO)NC(=O)[C@@H](NC(=O)C(C)(Cc1ccccc1)NC(=O)[C@@H](NC(=O)CNC(=O)[C@H](CCC(=O)O)NC(=O)C(C)(C)NC(=O)[C@@H](N)Cc1ccc(O)cc1)[C@@H](C)O)[C@@H](C)O)C(=O)NC(C)(C)C(=O)N[C@@H](CC(C)C)C(=O)N[C@@H](CC(=O)O)C(=O)N[C@@H](CCCCN)C(=O)N[C@@H](CCC(N)=O)C(=O)N[C@@H](C)C(=O)N[C@@H](CCC(N)=O)C(=O)N[C@@H](C)C(=O)N[C@@H](CCC(=O)O)C(=O)N[C@@H](Cc1ccccc1)C(=O)N[C@H](C(=O)N[C@@H](CCCCNC(=O)COCCOCCNC(=O)COCCOCCNC(=O)CC[C@H](NC(=O)CCCCCCCCCCCCCCCCCCC(=O)O)C(=O)O)C(=O)N[C@@H](Cc1c[nH]c2ccccc12)C(=O)N[C@@H](CC(C)C)C(=O)N[C@@H](CC(C)C)C(=O)N[C@@H](CCCCN)C(=O)NCC(=O)NCC(=O)N1CCC[C@H]1C(=O)N[C@@H](CO)C(=O)N[C@@H](CO)C(=O)NCC(=O)N[C@@H](C)C(=O)N1CCC[C@H]1C(=O)N1CCC[C@H]1C(=O)N1CCC[C@H]1C(=O)N[C@@H](CO)C(=O)N[C@@H](CCCCN)C(N)=O)C(C)C (stereo partly shown) [Compound P013]	0.28	0.14	72	24	15 ± 0.737
